According to patent publication US20240254135A1, “POLYPHENOL COMPOUNDS” (Epirium Bio Inc., priority 2022, published 2024):

Columns and labels:
PGC-1α = test: In vitro PGC-1α expression in differentiated C2C12 cells (cell ELISA); assay type: cell-based; conditions: 1 mM
Procedure: Culture conditions: DMEM containing 25 mM glucose with 10% FBS supplementation; grown at 37° C. and 5% CO2.
Drugs: (+)Epicatechin, AICAR (direct activator of AMPK).
Assay Conditions: C2C12 cells were cultured in DMEM supplemented in 10% FBS up to 80% confluence. The cells were further trypsinized and seeded into a 96 well plate at a density of 5000 cells/well (well volume—100 μL) (Day 0). Following attachment, the cells were allowed to reach 80-90% confluence in the plate (typically 48 hours post seeding) and further differentiated using DMEM+2% Horse Serum (200 μL/well). The media was changed every day or at least every alternate day for 5 days to allow myoblasts to differentiate into myotubes. On day 7 (post seeding), the cells were treated with standards and test compounds for PGC-1 α assay.
PGC-1α assay: For the detection of PGC-1α, the cells were incubated with 0.5 μg/ml primary antibody (Merck, WH0010891M3) in PBS-T containing 5% BSA at 4° C. overnight. The cells were then washed three times with PBS-T for 5 minutes and incubated with 1:1000 dilution secondary antibody (Anti-rabbit IgG, HRP-linked Antibody, Cell Signaling) in PBS-T with 1% BSA for 1 hour at RT. Cells were washed three times with PBS-T for 5 minutes The cells were incubated with 100 μl TMB substrate solution for 30 minutes and the reaction was stopped with 100 μl of 2N H2SO4. […] (For plate optical density calculations, a background correction was taken at 540 nm). The final PGC-1α activation % is average of activation of 6 replicates.

[1] = molecular target: T1, mitochondrial ATP synthase (Mus musculus, UniProt P56480+Q03265); test: ATP synthesis (oxygen consumption, Seahorse XF96) in fresh heart mitochondria; assay type: biochemical; conditions: fresh heart mitochondria (FIG. 1, FIG. 2)
T1 construct: from tissue; host or cells: mouse heart, isolated mitochondria (fresh or frozen)
Description: (§1) To assess whether the fraction of synthetic and reverse hydrolytic activities of mitochondrial ATP synthase can be measured in the same preparation, a protocol was developed to monitor changes in oxygen consumption and proton release in response to changes in mitochondrial ATP synthase activity. The proton released and the concomitant changes in the pH can be monitored using the ECAR (extracellular acidification) channel in the Agilent Seahorse XF analyzer using isolated mitochondria, to ensure that the changes in pH cannot be attributed to glycolysis or other contributors to ECAR.
(§2) Mice were anesthetized with isoflurane followed by a cervical dislocation, and the heart was immediately removed and placed in ice cold relaxation buffer (5 mM sodium pyrophosphate, 100 mM KCl, 5 mM EGTA, 5 mM HEPES; pH 7.4). The heart was squeezed with tweezers to remove blood, minced with scissors, and then placed in a glass-glass Dounce homogenizer with 3 mL of HES homogenization buffer (250 mM sucrose, 5 mM HEPES, 1 mM EDTA; pH to 7.2, adjusted with KOH). The heart tissue was homogenized first with the loose pestle and followed by the tight pestle. The homogenized tissue was placed in a pre-chilled 15 ml conical tube and centrifuged at 900×g (4° C.) for 10 minutes (min). The supernatant was removed, placed in a new tube and centrifuged again at 900×g for 10 min. The supernatant was then transferred to 2 mL microcentrifuge tubes and centrifuged at 10,000×g (4° C.) for 10 min. The mitochondrial pellets were re-suspended in ice cold HES buffer and mitochondrial protein was measured with a BCA assay (Pierce). The concentrated mitochondrial pellet was stored on ice.
Heart mitochondria (0.75-1.5 μg) were loaded into a Seahorse XF96 microplate in 20 μL of MAS (70 mM Sucrose, 220 mM Mannitol, 5 mM KH2PO4, 5 mM MgCl2, 1 mM EGTA, 2 mM HEPES; pH 7.2) plus 1% free fatty acid BSA containing substrates. The loaded plate was centrifuged at 2,000×g for 5 min at 4° C. […]
Oxygen consumption was measured in isolated fresh intact mitochondria from mouse heart, as oxygen consumption is linked to maximal ATP synthesis and proton release when mitochondria are respiring either in the presence of substrates and ADP (ATP synthesizing mitochondria or state 3) or in the presence of substrates but not ADP (state 4). […]
OCR and ECAR were measured in a Seahorse XF96 analyzer under basal conditions as well as after injection of 2 μM oligomycin, two sequential additions of 1.5 μM FCCP, followed by 1 μM rotenone with 2 μM antimycin A. Respiratory parameters were calculated according to standard protocols, and all rates were corrected for non-mitochondrial respiration/background signal by subtracting the oxygen consumption rate insensitive to rotenone plus antimycin A.

[2] = molecular target: T1, mitochondrial ATP synthase; test: ATP hydrolysis (proton release/ECAR, Seahorse XF96) in fresh heart mitochondria; assay type: biochemical; conditions: fresh heart mitochondria (FIG. 1, FIG. 2)
Description: as §1, §2
Heart mitochondria (0.75-1.5 μg) were loaded into a Seahorse XF96 microplate in 20 μL of MAS (70 mM Sucrose, 220 mM Mannitol, 5 mM KH2PO4, 5 mM MgCl2, 1 mM EGTA, 2 mM HEPES; pH 7.2) plus 1% free fatty acid BSA containing substrates. The loaded plate was centrifuged at 2,000×g for 5 min at 4° C. (no brake) and an additional 130 μL of MAS was added to each well. When assessing compounds effect on respirometry, the compounds were added at this point at the indicated concentration in MAS buffer. To avoid disrupting mitochondrial adherence to the bottom of the plate, MAS was added using a multichannel pipette pointed at a 45° angle to the top of the well-chamber, as instructed by the manufacturer. Substrate concentrations in the well when assay was starting in state 4 were as follow: (i) 5 mM pyruvate+5 mM malate or ii) 5 mM succinate+2 μM rotenone. Substrate concentrations in the well when assay was starting in state 3 were as follow: (i) 5 mM pyruvate+5 mM malate+4 mM ADP or ii) 5 mM succinate+2 μM rotenone+4 mM ADP. Injections were performed as indicated in the figure descriptions at the following final concentration in the well: oligomycin (3.5 μM), FCCP (4 μM), Antimycin A (2 μM). Compounds were added at the indicated concentration.
ATP hydrolysis capacity or state 4 acidification was measured using Seahorse XF96 as described in Divakaruni et al. (2018) Anal Biochem 552:60-65 and Acin-Perez et al. (2021) Life 11(9):949, in MAS (70 mM Sucrose, 220 mM Mannitol, 5 mM KH2PO4, 5 mM MgCl2, 1 mM EGTA, 2 mM HEPES; pH 7.2). Plates were loaded with 0.75-1.5 μg of mouse heart mitochondria, or 25 μg of cell lysate. Cell lysates were prepared by subjecting the samples to 4 cycles of free thaw (liquid nitrogen—37° C. water bath) before measuring protein concentration. When assessing compounds effect on respirometry, the compounds were added in MAS after sample centrifugation. Initial respiration of the samples was sustained by the addition of 5 mM succinate+2 μM rotenone in the MAS after centrifugation. Injections were performed at the following final concentration in the well: Antimycin A (2 μM), oligomycin (5 μM), FCCP (1 μM), ATP (20 mM). To assess maximal ATP concentration, ATP was injected consecutively. […]

[3] = molecular target: T1, mitochondrial ATP synthase; test: Maximal ATP hydrolysis capacity in frozen heart mitochondria; assay type: biochemical; conditions: frozen heart mitochondria, different concentrations in the assay media
Procedure: ATP hydrolysis capacity or state 4 acidification was measured using Seahorse XF96 as described in Divakaruni et al. (2018) Anal Biochem 552:60-65 and Acin-Perez et al. (2021) Life 11(9):949, in MAS (70 mM Sucrose, 220 mM Mannitol, 5 mM KH2PO4, 5 mM MgCl2, 1 mM EGTA, 2 mM HEPES; pH 7.2). Plates were loaded with 0.75-1.5 μg of mouse heart mitochondria, or 25 μg of cell lysate. Cell lysates were prepared by subjecting the samples to 4 cycles of free thaw (liquid nitrogen—37° C. water bath) before measuring protein concentration. When assessing compounds effect on respirometry, the compounds were added in MAS after sample centrifugation. Initial respiration of the samples was sustained by the addition of 5 mM succinate+2 μM rotenone in the MAS after centrifugation. Injections were performed at the following final concentration in the well: Antimycin A (2 μM), oligomycin (5 μM), FCCP (1 μM), ATP (20 mM). To assess maximal ATP concentration, ATP was injected consecutively.
An additional assay was developed to determine the maximal ATP hydrolysis capacity in frozen mitochondria. Maximal ATP hydrolytic capacity was assessed in frozen heart mitochondria where mitochondrial respiration is inhibited by Antimycin A and maximal ATP hydrolysis is driven by co-injection of FCCP and ATP, followed by inhibition in the presence of oligomycin.

SMILES | % Activity (PGC-1α expression) (PGC-1α; Table 4, differentiated C2C12 cells, OD at 5 minutes) | % Activity (PGC-1α expression) (PGC-1α; Table 5, differentiated C2C12, 5000 cells/well, DMSO = 100) | % Activity (PGC-1α expression) (PGC-1α; Table 6, C2C12 cells, 5000 cells/well) | % Activity (PGC-1α expression) (PGC-1α; Table 7, C2C12 cells, 5000 cells/well, DMSO = 100) | % Activity (PGC-1α expression) (PGC-1α; Table 8, C2C12 cells, 5000 cells/well, DMSO = 100) | change in ATP synthesis [1] | changes in ATP hydrolysis [2] | inhibition of ATP hydrolysis [3]
NC(=O)c1ncn([C@@H]2O[C@H](CO)[C@@H](O)[C@H]2O)c1N [AICAR, 5-aminoimidazole-4-carboxamide-1-β-D-ribofuranoside] | 128% | 122% | 136% | 122% | 140% |  |  | 
CC[C@H]1/C=C/C=C/C[C@@H](C)[C@H](O)[C@@](C)(O)C(=O)[C@@H](C)[C@H](O)[C@@H](C)C(=O)[C@@H](C)[C@H](O)[C@@H](C)/C=C/C(=O)O[C@@H]2[C@H](C)[C@H](CC1)O[C@]1(CC[C@H](C)[C@H](C[C@@H](C)O)O1)[C@H]2C [Oligomycin, oligomycin, reference compound] |  |  |  |  |  | worked as expected | worked as expected | dose dependent inhibition
